One experiment has as its target T1, human ETB receptor (Homo sapiens, UniProt P24530).
T1 construct: expressed in transfected cells; host or cells: COS7 cells
T1 sequence (P24530 27-442): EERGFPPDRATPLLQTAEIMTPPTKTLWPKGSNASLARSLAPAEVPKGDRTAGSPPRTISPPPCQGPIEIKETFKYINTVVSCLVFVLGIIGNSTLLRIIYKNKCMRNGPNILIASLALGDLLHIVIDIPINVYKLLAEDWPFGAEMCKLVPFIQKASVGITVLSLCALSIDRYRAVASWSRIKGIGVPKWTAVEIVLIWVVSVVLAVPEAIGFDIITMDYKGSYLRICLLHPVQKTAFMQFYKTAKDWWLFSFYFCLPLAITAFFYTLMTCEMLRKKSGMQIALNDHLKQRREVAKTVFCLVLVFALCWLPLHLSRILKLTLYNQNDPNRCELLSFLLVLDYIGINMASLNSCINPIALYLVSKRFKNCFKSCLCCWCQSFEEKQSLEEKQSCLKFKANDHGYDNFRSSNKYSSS
Briefly: Endothelin binding inhibition, Binding Test #2: competition with 125I-ET-1 for ETB receptors on transfected COS7 cell membranes. In a few lines: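 Membranes from COS7 cells transfected with human ETB receptor, prepared in HEPES pH 7.4 with aprotinin, MnCl2/DNase treatment at 37° C for 30 min. Test compounds compete with 125I-labeled ET-1 for receptor binding; membrane used at 1 μg/50 μL binding buffer.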

The target of the next experiment is T2, human ETA receptors (Homo sapiens, UniProt P25101).
T2 construct: endogenous in cells; host or cells: TE 671 cells (ATCC HTB 139), membrane preparation
T2 sequence (P25101 21-427): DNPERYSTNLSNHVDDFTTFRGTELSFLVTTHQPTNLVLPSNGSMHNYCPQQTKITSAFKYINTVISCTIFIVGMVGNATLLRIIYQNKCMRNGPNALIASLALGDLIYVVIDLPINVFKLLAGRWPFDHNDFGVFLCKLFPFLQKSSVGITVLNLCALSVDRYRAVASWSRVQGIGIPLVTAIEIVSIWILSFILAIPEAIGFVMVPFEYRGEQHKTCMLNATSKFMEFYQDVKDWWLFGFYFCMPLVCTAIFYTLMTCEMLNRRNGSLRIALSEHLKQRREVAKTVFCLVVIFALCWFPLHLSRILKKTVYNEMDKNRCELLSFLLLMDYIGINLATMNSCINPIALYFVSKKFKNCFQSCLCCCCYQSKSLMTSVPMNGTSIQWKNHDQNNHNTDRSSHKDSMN
Briefly: Endothelin binding inhibition, Binding Test #1: competition with 125I-ET-1 for ETA receptors on TE 671 cell membranes.

Setting [1] is: incubation at 24° C. (values marked †).
Where [2] appears, read: incubation at 4° C. (values without †).

“And” between values parts separate entries of the source, which are not always exact repeats. Equal entries are not always repeated.

For orientation: IC50 means the concentration at which inhibition is half-maximal. Higher therefore signals lower potency. In the case of `COC(=O)c1c(C)cc(C)c(NC(=O)c2sccc2S(=O)(=O)Nc2onc(C)c2Cl)c1C` [N-(4-chloro-3-methyl-5-isoxazolyl)-2-(3-methoxycarbonyl-2,4,6-trimethylphenylaminocarbonyl)thiophene-3-sulfonamide], the half-maximal inhibitory concentration (IC50) on human ETB receptor (setting [1]) was 16.5 µM; on human ETA receptors (setting [1]), 0.321 nM and 0.92 nM.

Turning to `Cc1noc(NS(=O)(=O)c2ccsc2C(=O)NC(=O)c2ccc3c(c2)OCO3)c1Br` [N-(4-bromo-3-methyl-5-isoxazolyl)-2-[(3,4-methylenedioxy)benzoyl]aminocarbonyl]thiophene-3-sulfonamide], the IC50 was 37 µM at human ETB receptor (setting [1]) and 89 nM on human ETA receptors (setting [1]).

Turning to `Cc1onc(NS(=O)(=O)c2c(Cc3ccc4c(c3)OCO4)sc3ccccc23)c1Cl` [N-(4-chloro-5-methyl-3-isoxazolyl)-2-[3,4-(methylenedioxy)benzyl]benzo[b]thiophene-3-sulfonamide], the IC50 was 0.364 µM at human ETB receptor (setting [1]) and 5.5 nM at human ETA receptors (setting [1]).

For `Cc1noc(NS(=O)(=O)c2ccsc2N)c1Cl` [N-(4-chloro-3-methyl-5-isoxazolyl)-2-aminothiophene-3-sulfonamide], the IC50 came out at 6.2 µM at human ETB receptor (setting [1]) and 14000 nM on human ETA receptors (setting [1]).

Take `Cc1ccc(-c2ccsc2S(=O)(=O)Nc2onc(C)c2Br)c(C)c1` [N-(4-bromo-3-methyl-5-isoxazolyl)-3-(2,4-dimethylphenyl)thiophene-2-sulfonamide]: the IC50 at human ETB receptor (setting [1]) stood at 60.3 µM; on human ETA receptors (setting [1]) it was 100 nM.

With `Cc1cc(C)c(NC(=O)c2sccc2S(=O)(=O)Nc2noc(C)c2Cl)c(C)c1CO` [N-(4-chloro-5-methyl-3-isoxazolyl)-2-(3-hydroxymethyl-2,4,6-trimethylphenylaminocarbonyl)thiophene-3-sulfonamide], the figures for the IC50 at human ETB receptor (setting [1]) and on human ETA receptors (setting [1]) were 3.08 µM and 0.88 nM, respectively.

Consider `CCc1oc2ccccc2c1S(=O)(=O)Nc1onc(C)c1Cl` [N-(4-chloro-3-methyl-5-isoxazolyl)-2-ethylbenzo[b]furan-3-sulfonamide], for which the results for the IC50 at human ETB receptor (setting [1]) and at human ETA receptors (setting [1]) were 22 µM and 150 nM, respectively.

`Cc1noc(NS(=O)(=O)c2c(Cc3ccc(N(C)C)cc3)sc3ccccc23)c1Cl` [N-(4-chloro-3-methyl-5-isoxazolyl)-2-(4-dimethylaminobenzyl)benzo[b]thiophene-3-sulfonamide]: the IC50 came to 0.477 µM on human ETB receptor (setting [2]), 1.3 µM at human ETB receptor (setting [1]), 14 nM at human ETA receptors (setting [2]) and 41 nM on human ETA receptors (setting [1]).

Take `Cc1noc(NS(=O)(=O)c2sccc2C(=O)Nc2ccccc2)c1C` [N-(3,4-dimethyl-5-isoxazolyl))-3-(phenylaminocarbonyl)thiophene-2-sulfonamide]: the IC50 on human ETB receptor (setting [2]) was more than 100 µM; on human ETA receptors (setting [2]), 163 nM.

Turning to `Cc1noc(NS(=O)(=O)c2ccsc2C(=O)Nc2cc3c(cc2CCO)OCO3)c1Cl` [N-(4-chloro-3-methyl-5-isoxazolyl)-2-[3,4-(methylenedioxy)-6-(2-hydroxyethyl)phenylaminocarbonyl]thiophene-3-sulfonamide], the IC50 on human ETB receptor (setting [1]) worked out at 16.8 µM; on human ETA receptors (setting [1]), 5.6 nM.

On to “N-(4-chloro-3-methyl-5-isoxazolyl)-2-[β-acetoxy-2-methyl-4,5-(methylenedioxy)styryl]thiophene-3-sulfonamide”, for which the IC50 at human ETB receptor (setting [1]) was 3.74 µM; on human ETA receptors (setting [2]), 5.44 nM.

Take `Cc1noc(NS(=O)(=O)c2ccsc2C(=O)Nc2ccc3c(c2)OCO3)c1Cl` [N-(4-chloro-3-methyl-5-isoxazolyl)-2-[3,4-(methylenedioxy)]phenylaminocarbonyl-3-thiophenesulfonamide]: the IC50 at human ETB receptor (setting [1]) was 9.2 µM; at human ETA receptors (setting [1]), 7.3 nM.

As to `Cc1noc(NS(=O)(=O)c2ccsc2C(=O)Cc2ccc3c(c2)OCO3)c1Br` [N-(4-bromo-3-methyl-5-isoxazolyl)-2-[(3,4-methylenedioxy)phenylacetyl]thiophene-3-sulfonamide], the IC50 on human ETB receptor (setting [1]) worked out at 5.5 µM; on human ETA receptors (setting [1]), 9.1 nM.

Turning to `Cc1ccc(-c2ccc(S(=O)(=O)Nc3onc(C)c3Br)s2)s1` [N-(4-bromo-3-methyl-5-isoxazolyl)-5-(5-methyl-2-thienyl)thiophene-2-sulfonamide], the IC50 stood at 0.21 µM on human ETB receptor (setting [1]) and 17000 nM at human ETA receptors (setting [1]).

Regarding `Cc1noc(NS(=O)(=O)c2ccsc2C(=O)NS(=O)(=O)c2cccc3c(N(C)C)cccc23)c1Br` [N-(4-bromo-3-methyl-5-isoxazolyl)-2-[(5-dimethylamino-1-naphthyl)sulfonylaminocarbonyl]thiophene-3-sulfonamide], the IC50 came to 3.9 µM on human ETB receptor (setting [1]) and 970 nM on human ETA receptors (setting [1]).

What is called inhibition is the change of the read-out against control, counted positive when it falls. Turning to `Cc1ccccc1-c1ccsc1S(=O)(=O)Nc1onc(C)c1Br` [N-(4-bromo-3-methyl-5-isoxazolyl)-3-(2-tolyl)thiophene-2-sulfonamide], the concentration for half-maximal inhibition (IC50) on human ETB receptor (setting [1]) was 55.1 µM; at human ETA receptors (setting [1]), 324 nM and 302 nM. Further, the inhibition at 100 µM at human ETB receptor (read-out: ETB % inhibition @ 100 μM, @ 100 μM, incubation at 24° C.) worked out at 31%.

With `Cc1ccc(OC(=O)c2sccc2S(=O)(=O)Nc2onc(C)c2Cl)c(C)c1` [N-(4-chloro-3-methyl-5-isoxazolyl)-2-[(2,4-dimethylphenoxy)carbonyl]thiophene-3-sulfonamide], the figures for the IC50 at human ETB receptor (setting [1]) and at human ETA receptors (setting [1]) were 68.5 µM and 648 nM, respectively.

Take `CCCc1cc2c(cc1OCc1sccc1S(=O)(=O)Nc1onc(C)c1Br)OCO2` [N-(4-bromo-3-methyl-5-isoxazolyl)-2-{[4,5-(methylenedioxy)-2-propylphenoxy]methyl}thiophene-3-sulfonamide]: the half-inhibitory concentration (IC50) was found to be 0.407 µM at human ETB receptor (setting [1]) and 107 nM at human ETA receptors (setting [1]).

As to `Cc1cc(C)c(CNC(=O)c2sccc2S(=O)(=O)Nc2onc(C)c2Cl)c(C)c1CC#N` [N-4-chloro-3-methyl-5-isoxazolyl)-2-(3-cyanomethyl-2,4,6-trimethylbenzylaminocarbonyl)thiophene-3-sulfonamide], the values for the 50% inhibitory concentration (IC50) at human ETB receptor (setting [1]) and at human ETA receptors (setting [1]) were 81.5 µM and 531 nM, respectively.

For the molecule `Cc1noc(NS(=O)(=O)c2ccsc2C(=O)N2CCN(Cc3ccc4c(c3)OCO4)CC2)c1Cl` [N-(4-chloro-3-methyl-5-isoxazolyl)-2-{[4-(3,4-methylenedioxybenzyl)piperazin-1-yl]carbonyl}thiophene-3-sulfonamide], the 50% inhibitory concentration (IC50) on human ETB receptor (setting [1]) is more than 100 µM; at human ETA receptors (setting [1]), 20000 nM.

For `Cc1cc(C)c(CCc2ccsc2S(=O)(=O)Nc2onc(C)c2Br)c(C)c1` [N-(4-bromo-3-methyl-5-isoxazolyl)-3-(2,4,6-trimethylphenethyl)thiophene-2-sulfonamide], the IC50 at human ETB receptor (setting [1]) worked out at 1.62 µM; on human ETA receptors (setting [1]) it was 55 nM.

As for `Cc1ccc(CCc2sccc2S(=O)(=O)Nc2onc(C)c2Br)cc1` [N-(4-bromo-3-methyl-5-isoxazolyl)-2-[(4-methyl)phenethyl]thiophene-3-sulfonamide], the concentration for half-maximal inhibition (IC50) on human ETB receptor (setting [1]) was found to be 40.1 µM; on human ETA receptors (setting [1]), 106 nM.

On to `Cc1cc(C)c(OC(=O)c2sccc2S(=O)(=O)Nc2onc(C)c2Br)c(C)c1` [N-(4-bromo-3-methyl-5-isoxazolyl)-2-[(2,4,6-trimethylphenoxy)carbonyl]thiophene-3-sulfonamide], for which the IC50 on human ETB receptor (setting [1]) was determined as 24.5 µM; on human ETA receptors (setting [1]), 479 nM.

For the molecule `COc1ccc(NC(=O)c2sccc2S(=O)(=O)Nc2onc(C)c2Cl)c(OC)c1` [N-(4-chloro-3-methyl-5-isoxazolyl)-2-[(2,4-dimethoxyphenyl)aminocarbonyl]thiophene-3-sulfonamide], the results for the half-inhibitory concentration (IC50) at human ETB receptor (setting [1]) and on human ETA receptors (setting [1]) were 63.1 µM and 158 nM, respectively.

Take `Cc1ccc(CC(=O)c2sccc2S(=O)(=O)Nc2onc(C)c2C)c(C)c1` [N-(3,4-dimethyl-5-isoxazolyl)-2-(2,4-dimethylphenylacetyl)thiophene-3-sulfonamide]: the figures for the IC50 at human ETB receptor (setting [1]) and at human ETA receptors (setting [1]) were 17.4 µM and 2.7 nM, respectively.

For `Cc1ccc(NC(=O)c2sccc2S(=O)(=O)Nc2onc(C)c2Cl)nc1` [N-(4-chloro-3-methyl-5-isoxazolyl)-2-[(3-methyl-6-pyridyl)aminocarbonyl]thiophene-3-sulfonamide], the figures for the IC50 at human ETB receptor (setting [1]) and on human ETA receptors (setting [1]) were 43.7 µM and 23 nM, respectively.

`COc1ccc(OC(=O)c2sccc2S(=O)(=O)Nc2onc(C)c2Br)cc1` [N-(4-bromo-3-methyl-5-isoxazolyl)-2-[(4-methoxylphenoxy)carbonyl]thiophene-3-sulfonamide]: the IC50 at human ETB receptor (setting [1]) was 111 µM; on human ETA receptors (setting [1]), 1730 nM.

In the case of `Cc1noc(NS(=O)(=O)c2sccc2Cc2ccccc2)c1Br` [N-(4-bromo-3-methyl-5-isoxazolyl)-3-benzylthiophene-2-sulfonamide], the IC50 is 39 µM on human ETB receptor (setting [1]) and 1600 nM at human ETA receptors (setting [1]).

On to `CCc1ccc(Cc2sc3ccccc3c2S(=O)(=O)Nc2onc(C)c2Br)cc1` [N-(4-bromo-3-methyl-5-isoxazolyl)-2-(4-ethylbenzyl)benzo[b]thiophene-3-sulfonamide], for which the IC50 on human ETB receptor (setting [1]) came to 1.1 µM; at human ETA receptors (setting [1]), 48 nM.

Source of the values: patent US6632829B2, “Sulfonamides and derivatives thereof that modulate the activity of endothelin” (Texas Biotechnology Corp., priority 1996, dated 2003).
